Measured values from PubChem BioAssay (NCI).
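Interpolation was linear, between the two tested concentrations surrounding the appropriate level; five concentrations were tested over 48 hours in 96-well plates. GI50: concentration for 50% inhibition of growth. Definition used: TGI = concentration required for complete inhibition of growth.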

Columns and labels:
Test in all cases: growth of human tumour cells (NCI), 48 h
[1] = tested on: OVCAR-3 ovarian
[2] = tested on: PC-3 prostate
[3] = tested on: LOX IMVI melanoma
[4] = tested on: MALME-3M melanoma
[5] = tested on: SF-539 CNS
[6] = tested on: CCRF-CEM leukemia
[7] = tested on: KM12 colon
[8] = tested on: MCF7 breast
[9] = tested on: A498 renal
[10] = tested on: NCI-H226 lung
[11] = tested on: SW-620 colon
[12] = tested on: NCI-H23 lung
[13] = tested on: SK-MEL-2 melanoma
[14] = tested on: SK-OV-3 ovarian
[15] = tested on: U251 CNS
[16] = tested on: MOLT-4 leukemia
[17] = tested on: 786-0 renal
[18] = tested on: CAKI-1 renal
[19] = tested on: NCI-H522 lung
[20] = tested on: UACC-257 melanoma
[21] = tested on: MDA-MB-435
[22] = tested on: HOP-62 NSCLC
[23] = tested on: HOP-92 NSCLC
[24] = tested on: HS 578T breast
[25] = tested on: K-562 leukemia
[26] = tested on: DU-145 prostate
[27] = tested on: SNB-75 CNS
[28] = tested on: OVCAR-5 ovarian
[29] = tested on: HCC-2998 colon
[30] = tested on: MDA-MB-468 breast
[31] = tested on: M14 melanoma
[32] = tested on: SF-268 CNS
[33] = tested on: SR leukemia
[34] = tested on: UACC-62 melanoma
[35] = tested on: SN12C renal
[36] = tested on: T-47D breast
[37] = tested on: ACHN renal
[38] = tested on: SK-MEL-28 melanoma
[39] = tested on: OVCAR-4 ovarian
[40] = tested on: OVCAR-8 ovarian
[41] = tested on: HCT-15 colon
[42] = tested on: A549 NSCLC
[43] = tested on: COLO 205 colon
[44] = tested on: IGROV1 ovarian
[45] = tested on: SF-295 CNS
[46] = tested on: NCI/ADR-RES ovarian
[47] = tested on: SNB-19 CNS
[48] = tested on: BT-549 breast
[49] = tested on: EKVX NSCLC
[50] = tested on: TK-10 renal
[51] = tested on: HT29 colon
[52] = tested on: HCT-116 colon
[53] = tested on: MDA-MB-231 breast
[54] = tested on: RPMI-8226 leukemia
[55] = tested on: NCI-H460 lung
[56] = tested on: UO-31 renal
[57] = tested on: SK-MEL-5 melanoma
[58] = tested on: HL-60(TB) leukemia

## COC(=O)CCn1c(-c2ccc(-n3cc(-c4ccc(O[C@H]5O[C@@H]6OC7(C)CC[C@H]8[C@H](C)CC[C@@H]([C@H]5C)[C@@]68OO7)cc4)nn3)cc2)nc2ccccc21
[1]
  GI50: 100 nM
  TGI: > 9250 nM
[2]
  GI50: 40 nM
  TGI: > 9250 nM
[3]
  GI50: 37.1 nM
  TGI: 158 nM
[4]
  GI50: 175 nM
  TGI: 5420 nM
[5]
  GI50: 197 nM
  TGI: > 9250 nM
[6]
  GI50: 51.7 nM
  TGI: > 9250 nM
[7]
  GI50: 52.5 nM
  TGI: > 9250 nM
[8]
  GI50: 40.9 nM
  TGI: > 9250 nM
[9]
  GI50: 5400 nM
  TGI: > 9250 nM
[10]
  GI50: 163 nM
  TGI: 2300 nM
[11]
  GI50: 43.8 nM
  TGI: > 9250 nM
[12]
  GI50: 65.5 nM
  TGI: 6490 nM
[13]
  GI50: 238 nM
  TGI: 812 nM
[14]
  GI50: 640 nM
  TGI: > 9250 nM
[15]
  GI50: 61 nM
  TGI: > 9250 nM
[16]
  GI50: 37.7 nM
  TGI: 1620 nM
[17]
  GI50: 330 nM
  TGI: > 9250 nM
[18]
  GI50: 333 nM
  TGI: > 9250 nM
[19]
  GI50: 97.6 nM
  TGI: 1290 nM
[20]
  GI50: 276 nM
  TGI: > 9250 nM
[21]
  GI50: 78 nM
  TGI: > 9250 nM
[22]
  GI50: 558 nM
  TGI: > 9250 nM
[23]
  GI50: 128 nM
  TGI: 765 nM
[24]
  GI50: 205 nM
  TGI: 5570 nM
[25]
  GI50: 38.8 nM
  TGI: > 9250 nM
[26]
  GI50: 485 nM
  TGI: > 9250 nM
[27]
  GI50: 257 nM
  TGI: > 9250 nM
[28]
  GI50: 134 nM
  TGI: > 9250 nM
[29]
  GI50: 319 nM
  TGI: > 9250 nM
[30]
  GI50: 177 nM
  TGI: 588 nM
[31]
  GI50: 360 nM
  TGI: > 9250 nM
[32]
  GI50: 242 nM
  TGI: > 9250 nM
[33]
  GI50: 40.2 nM
  TGI: 1140 nM
[34]
  GI50: 135 nM
  TGI: 1970 nM
[35]
  GI50: 189 nM
  TGI: > 9250 nM
[36]
  GI50: 37.4 nM
  TGI: > 9250 nM
[37]
  GI50: 262 nM
  TGI: 1360 nM
[38]
  GI50: 148 nM
  TGI: > 9250 nM
[39]
  GI50: 155 nM
  TGI: > 9250 nM
[40]
  GI50: 128 nM
  TGI: > 9250 nM
[41]
  GI50: 37.6 nM
  TGI: > 9250 nM
[42]
  GI50: 277 nM
  TGI: > 9250 nM
[43]
  GI50: 68.5 nM
  TGI: > 9250 nM
[44]
  GI50: 257 nM
  TGI: > 9250 nM
[45]
  GI50: 223 nM
  TGI: > 9250 nM
[46]
  GI50: 307 nM
  TGI: > 9250 nM
[47]
  GI50: 274 nM
  TGI: > 9250 nM
[48]
  GI50: 127 nM
  TGI: 693 nM
[49]
  GI50: 150 nM
  TGI: > 9250 nM
[50]
  GI50: 386 nM
  TGI: > 9250 nM
[51]
  GI50: 75.3 nM
  TGI: > 9250 nM
[52]
  GI50: 34.3 nM
  TGI: > 9250 nM
[53]
  GI50: 208 nM
  TGI: 2420 nM
[54]
  GI50: 42.7 nM
  TGI: 5120 nM
[55]
  GI50: 274 nM
  TGI: > 9250 nM
[56]
  GI50: 194 nM
  TGI: 1050 nM
[57]
  GI50: 216 nM
  TGI: 1130 nM
[58]
  GI50: 98.4 nM
  TGI: 572 nM
